# Laboratory results as given in article PMC12583774 (Nature Communications, 2025).
# Experiments:
# [1] = system: SARS-CoV-2 strain (Wuhan-Hu-1); test: microbe, parasite or virus in culture; type: cell-based; details: Severe acute respiratory syndrome coronavirus 2, A549-ACE2, 24 h
# [2] = system: SARS-CoV-2 nCoV-SH01 strain; set-up: species or system K18-hACE2 transgenic mice; details: mouse, in vivo
smiles,measurement,setting,value
CCC(CC)COC(=O)[C@H](C)N[P@](=O)(OC[C@H]1O[C@@](C#N)(c2ccc3c(N)ncnn23)[C@H](O)[C@@H]1O)Oc1ccccc1 [remdesivir],EC50,[1],60 nM
same,SARS-CoV-2 N protein antigen staining in lungs (IHC),[2],significantly reduced viral antigen staining
same,lung pathological features (H&E),[2],markedly alleviated
